Measured values published in US20090030024A1, “THIAZOLES AS FUNGICIDES” (priority 2005, published 2009).
Like-named read-outs stand apart in the source and are kept apart here.

Key:
[1] = logP determination by retention times (calibration with alkan-2-ones)
Phytophthora infestans = assay: whole plant or invertebrate; format: in vivo; settings: in Solanum lycopersicum, 168 h, read-out: efficacy
[2] = logP, * HPLC reversed-phase C18, 40° C., mobile phase 0.1% aqueous formic acid and acetonitrile, linear gradient 10% to 95% acetonitrile
[3] = logP, values marked *: HPLC on reversed-phase C 18, 40° C., mobile phase 0.1% aqueous formic acid and acetonitrile, linear gradient 10% to 95% acetonitrile
[4] = * HPLC reversed-phase C18, 40° C., mobile phase 0.1% aqueous formic acid and acetonitrile, linear gradient 10% to 95% acetonitrile

| SMILES | chromatographic logP [1] | pest or weed control at 500 ppm (Phytophthora infestans) [%] | chromatographic logP [1, 2] | other results |
| --- | --- | --- | --- | --- |
| Cc1nc(C)c(-c2ccnc(Nc3ccc(O)cc3)n2)s1 [Example 321, 4-{[4-(2,4-dimethyl-1,3-thiazol-5-yl)pyrimidin-2-yl]amino}phenol] | 1.62 | ≥ 70 | – | – |
| Cc1nc(C2CC2)sc1-c1ccnc(Nc2ccc(O)cc2)n1 [Example 324, 4-{[4-(2-cyclopropyl-4-methyl-1,3-thiazol-5-yl)pyrimidin-2-yl]amino}phenol] | 2.01 | ≥ 70 | – | – |
| Cc1nc(N)sc1-c1ccnc(Nc2ccccc2)n1 [Example 210, 4-(2-amino-4-methyl-1,3-thiazol-5-yl)-N-phenylpyrimidine-2-amine] | 1.51 | ≥ 70 | – | – |
| Cc1nc(C2CC2)sc1-c1ccnc(Nc2ccc(CNC(=O)OC(C)(C)C)cc2)n1 [Example 630, tert-butyl-(4-{[4-(2-cyclopropyl-4-methyl-1,3-thiazol-5-yl)pyrimidin-2-yl]amino}benzyl)carbamate] | – | ≥ 70 | 3.46 | – |
| Cc1nc(C(C)C)sc1-c1ccnc(Nc2ccc(O)cc2)n1 [Example 329, 4-{[4-(2-isopropyl-4-methyl-1,3-thiazol-5-yl)pyrimidin-2-yl]amino}phenol] | 2.18 | ≥ 70 | – | – |
| Cc1nc(N)sc1-c1ccnc(Nc2ccc(CNC(=O)OC(C)(C)C)cc2)n1 [Example 628, tert-butyl-(4-{[4-(2-amino-4-methyl-1,3-thiazol-5-yl)pyrimidin-2-yl]amino}benzyl)carbamate] | – | ≥ 70 | 1.86 | – |
| COc1ccc(Nc2nccc(-c3sc(N)nc3C)n2)cc1Cl [Example 203, 4-(2-amino-4-methyl-1,3-thiazol-5-yl)-N-(3-chloro-4-methoxyphenyl)pyrimidine-2-amine] | 1.63 | ≥ 70 | – | – |
| CCc1nc(C)c(-c2ccnc(Nc3ccc(O)cc3)n2)s1 [Example 327, 4-{[4-(2-ethyl-4-methyl-1,3-thiazol-5-yl)pyrimidin-2-yl]amino}phenol] | 1.88 | ≥ 70 | – | – |
| CCc1nc(C)c(-c2ccnc(Nc3ccc(F)cc3)n2)s1 [Example 239, 4-(2-ethyl-4-methyl-1,3-thiazol-5-yl)-N-(4-fluorophenyl)pyrimidine-2-amine] | 3.1 | ≥ 70 | – | – |
| COCCOC(=O)Nc1ccc(Nc2nccc(-c3sc(N)nc3C)n2)cc1 [Example 69, 2-methoxyethyl-(4-{[4-(2-amino-4-methyl-1,3-thiazol-5-yl)pyrimidin-2-yl]amino}phenyl)carbamate] | 1.4 | ≥ 70 | – | – |
| CCc1nc(C)c(-c2ccnc(Nc3ccc(NC(C)=O)cc3)n2)s1 [Example 460, N-(4-{[4-(2-ethyl-4-methyl-1,3-thiazol-5-yl)pyrimidin-2-yl]amino}phenyl)acetamide] | – | ≥ 70 | 1.88 | – |
| Cc1nc(C)c(-c2ccnc(Nc3ccc(F)cc3)n2)s1 [Example 186, 4-(2,4-dimethyl-1,3-thiazol-5-yl)-N-(4-fluorophenyl)pyrimidine-2-amine] | 2.65 | ≥ 70 | – | – |
| COc1cc(Nc2nccc(-c3sc(C4CCCCC4)nc3C)n2)cc(OC)c1OC [Example 215, 4-(2-cyclohexyl-4-methyl-1,3-thiazol-5-yl)-N-(3,4,5-trimethoxyphenyl)pyrimidine-2-amine] | 3.97 | – | – | – |
| Cc1nc(C(C)C)sc1-c1ccnc(Nc2ccc(CNC(=O)OC(C)(C)C)cc2)n1 [Example 633, tert-butyl-(4-{[4-(2-isopropyl-4-methyl-1,3-thiazol-5-yl)pyrimidin-2-yl]amino}benzyl)carbamate] | – | – | 3.68 | – |
| COCCNc1nc(C)c(-c2ccnc(Nc3cccc(OC)c3)n2)s1 [Example 681, 4-{2-[(2-methoxyethyl)amino]-4-methyl-1,3-thiazol-5-yl}-N-(3-methoxyphenyl)pyrimidine-2-amine] | – | – | 1.86 | – |
| COCCNc1nc(C)c(-c2ccnc(Nc3ccc(F)c(C)c3)n2)s1 [Example 750, N-(4-fluoro-3-methylphenyl)-4-{2-[(2-methoxyethyl)amino]-4-methyl-1,3-thiazol-5-yl}pyrimidine-2-amine] | – | – | 2.04 | – |
| CC(=O)c1cccc(Nc2nccc(-c3sc(N4CCOCC4)nc3C)n2)c1 [Example 736, 1-(3-{[4-(4-methyl-2-morpholin-4-yl-1,3-thiazol-5-yl)pyrimidin-2-yl]amino}phenyl)ethanone] | – | – | 2.16 | – |
| COCC(C)Nc1nc(C)c(-c2ccnc(Nc3cccc(OC)c3)n2)s1 (centres unmarked) [Example 333, 4-{2-[(2-methoxy-1-methylethyl)amino]-4-methyl-1,3-thiazol-5-yl}-N-(3-methoxyphenyl)pyrimidine-2-amine] | 2.03 | – | – | – |
| CC(=O)Nc1ccc(Nc2nccc(-c3sc(C)nc3C)n2)cc1 [Example 458, N-(4-{[4-(2,4-dimethyl-1,3-thiazol-5-yl)pyrimidin-2-yl]amino}phenyl)acetamide] | – | – | 1.62 | – |

| SMILES | chromatographic logP [1] | pest or weed control at 500 ppm (Phytophthora infestans) [%] | chromatographic logP [1, 2] | other results |
| --- | --- | --- | --- | --- |
| COc1cc(Nc2nccc(-c3sc(N)nc3C)n2)cc(OC)c1OC [Example 201, 4-(2-amino-4-methyl-1,3-thiazol-5-yl)-N-(3,4,5-trimethoxyphenyl)pyrimidine-2-amine] | 1.51 | ≥ 70 | – | – |
| COc1cccc(Nc2nccc(-c3sc(C(C)C)nc3C)n2)c1 [Example 245, 4-(2-isopropyl-4-methyl-1,3-thiazol-5-yl)-N-(3-methoxyphenyl)pyrimidine-2-amine] | 3.5 | – | – | – |
| COCC(C)Nc1nc(C)c(-c2ccnc(Nc3cccc(N4CCCC4=O)c3)n2)s1 (centres unmarked) [Example 772, 1-{3-[(4-{2-[(2-methoxy-1-methylethyl)amino]-4-methyl-1,3-thiazol-5-yl}pyrimidin-2-yl)amino]phenyl}pyrrolidin-2-one] | – | – | 1.68 | – |
| Cc1nc(NCC2CCCO2)sc1-c1ccnc(Nc2ccccc2)n1 (centres unmarked) [Example 356, 4-{4-methyl-2-[(tetrahydrofuran-2-ylmethyl)amino]-1,3-thiazol-5-yl}-N-phenylpyrimidine-2-amine] | 1.87 | – | – | – |
| COc1cc(Nc2ncc(Br)c(-c3sc(C(C)C)nc3C)n2)cc(OC)c1OC [Example 908, 5-bromo-4-(2-isopropyl-4-methyl-1,3-thiazol-5-yl)-N-(3,4,5-trimethoxyphenyl)pyrimidine-2-amine] | – | – | – | chromatographic logP [1, 3]: 3.65 |
| Cc1nc2c(s1)C(=O)CCC2 [2-Methyl-7-oxo-4,5,6,7-tetrahydrobenzothiazole] | – | – | – | chromatographic logP ([1]; logP(HCOOH), HCOOH): 1.08 |
| CC(=O)c1cccc(Nc2nccc(-c3sc(NCC4CCCO4)nc3C)n2)c1 (centres unmarked) [Example 39, 1-{3-[(4-{4-methyl-2-[(tetrahydrofuran-2-ylmethyl)amino]-1,3-thiazol-5-yl}pyrimidin-2-yl)amino]phenyl}ethanone] | 1.82 | – | – | – |
| COCCNc1nc(C)c(-c2ccnc(Nc3ccc(C(C)=O)cc3)n2)s1 [Example 751, 1-{4-[(4-{2-[(2-methoxyethyl)amino]-4-methyl-1,3-thiazol-5-yl}pyrimidin-2-yl)amino]phenyl}ethanone] | – | – | 1.72 | – |
| COCc1nc(C)c(-c2ccnc(Nc3ccc(OC)nc3)n2)s1 [Example 298, 4-[2-(methoxymethyl)-4-methyl-1,3-thiazol-5-yl]-N-(6-methoxypyridin-3-yl)pyrimidine-2-amine] | 2.13 | – | – | – |
| CCc1nc(C)c(-c2ccnc(Nc3ccc(Cl)cc3)n2)s1 [Example 463, N-(4-chlorophenyl)-4-(2-ethyl-4-methyl-1,3-thiazol-5-yl)pyrimidine-2-amine] | – | – | 3.72 | – |
| COCCNc1nc(C)c(-c2ccnc(Nc3ccc(O)cc3)n2)s1 [Example 808, 4-[(4-{2-[(2-methoxyethyl)amino]-4-methyl-1,3-thiazol-5-yl}pyrimidin-2-yl)amino]phenol] | – | – | – | chromatographic logP [1, 3]: 1.22 |
| COc1cc(Nc2nccc(-c3sc(C)nc3C)n2)cc(OC)c1 [Example 406, N-(3,5-dimethoxyphenyl)-4-(2,4-dimethyl-1,3-thiazol-5-yl)pyrimidine-2-amine] | 2.64 | – | – | – |
| COCC(C)Nc1nc(C)c(-c2ccnc(Nc3ccc(NS(C)(=O)=O)cc3)n2)s1 (centres unmarked) [Example 657, N-{4-[(4-{2-[(2-methoxy-1-methylethyl)amino]-4-methyl-1,3-thiazol-5-yl}pyrimidin-2-yl)amino]phenyl}methanesulphonamide] | – | – | 1.53 | – |
| CC(=O)Nc1ccc(Nc2nccc(-c3sc(C)nc3C(F)(F)F)n2)cc1 [Example 698, N-[4-({4-[2-methyl-4-(trifluoromethyl)-1,3-thiazol-5-yl]pyrimidin-2-yl}amino)phenyl]acetamide] | – | – | 2.26 | – |
| Cc1nc(N(C)C)sc1-c1ccnc(Nc2ccc(N3CCCC3=O)cc2)n1 [Example 761, 1-[4-({4-[2-(dimethylamine)-4-methyl-1,3-thiazol-5-yl]pyrimidin-2-yl}amino)phenyl]pyrrolidin-2-one] | – | – | – | logP [1, 4]: 1.6* |
| CC(=O)N(Cc1cccc(N(C(C)=O)c2nccc(-c3sc(C4CC4)nc3C)n2)c1)C(C)=O [Example 622, N-acetyl-N-(3-{acetyl[4-(2-cyclopropyl-4-methyl-1,3-thiazol-5-yl)pyrimidin-2-yl]amino}benzyl)acetamide] | – | – | 2.39 | – |
| Cc1nc(C(C)C)sc1-c1ccnc(Nc2cccc(Cl)c2)n1 [Example 425, N-(3-chlorophenyl)-4-(2-isopropyl-4-methyl-1,3-thiazol-5-yl)pyrimidine-2-amine] | – | – | 4.25 | – |
| Cc1nc(N(C)C)sc1-c1ccnc(Nc2ccccc2)n1 [Example 688, 4-[2-(dimethylamine)-4-methyl-1,3-thiazol-5-yl]-N-phenylpyrimidine-2-amine] | – | – | – | logP [1, 4]: 1.98* |
